# Data reported in patent US10906873B2, “Substituted cyclic amides as herbicides” (FMC Corporation, priority 2015, dated 2021).
# Columns and labels:
# Assay type in all cases: in vivo
# kochia (Kochia scoparia) [1] = assay: Test A preemergence, kochia; settings: 0 to 100 scale
# Procedure, shortened: (§1)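 Test chemicals in non-phytotoxic solvent with surfactant applied either as a directed preemergence soil spray on seeds planted in loam soil-sand blend or as a postemergence spray onto plants 2-10 cm tall at one- to two-leaf stage grown in the same blend. Kept ~10 d in greenhouse, then injury rated visually against untreated controls on 0 (no effect) to 100 (complete control) scale.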
# [2] = tested on: pigweed (Amaranthus retroflexus); assay: Test A postemergence, pigweed; settings: 0 to 100 scale
# Procedure, shortened: as §1
# [3] = tested on: ragweed (common ragweed, Ambrosia elatior); assay: Test A postemergence, ragweed; settings: 0 to 100 scale
# Procedure, shortened: as §1
# [4] = tested on: sedge, umbrella (small-flower umbrella sedge, Cyperus difformis); assay: Test B flooded paddy test, sedge, umbrella; settings: Flood, scale of 0 to 100 where 0 is no effect and 100 is complete control, 13 to 15 d
# Procedure, shortened: (§2)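 Plants grown to the 2-leaf stage. At treatment, pots were flooded to 3 cm above the soil, compound was applied directly to the paddy water, and that depth was held throughout. After 13 to 15 d in the greenhouse, response was rated visually against controls on a 0 (no effect) to 100 (complete control) scale.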
# [5] = tested on: blackgrass (Alopecurus myosuroides); assay: Test A postemergence, blackgrass; settings: 0 to 100 scale
# Procedure, shortened: as §1
# [6] = tested on: ragweed (common ragweed, Ambrosia elatior); assay: Test A preemergence, ragweed; settings: 0 to 100 scale
# Procedure, shortened: as §1
# [7] = tested on: ryegrass, It. (Italian ryegrass, Lolium multiflorum); assay: Test A preemergence, ryegrass, It.; settings: 0 to 100 scale
# Procedure, shortened: as §1
# [8] = tested on: barnyardgrass (Echinochloa crus-galli); assay: Test B flooded paddy test, barnyardgrass; settings: Flood, scale of 0 to 100 where 0 is no effect and 100 is complete control, 13 to 15 d
# Procedure, shortened: as §2
# [9] = tested on: barnyardgrass (Echinochloa crus-galli); assay: Test A postemergence, barnyardgrass; settings: 0 to 100 scale
# Procedure, shortened: as §1
# rice (Oryza sativa) = assay: Test B flooded paddy test, rice; settings: Flood, scale of 0 to 100 where 0 is no effect and 100 is complete control, 13 to 15 d
# Procedure, shortened: as §2
# kochia (Kochia scoparia) [10] = assay: Test A postemergence, kochia; settings: 0 to 100 scale
# Procedure, shortened: as §1
# [11] = tested on: ryegrass, It. (Italian ryegrass, Lolium multiflorum); assay: Test A postemergence, ryegrass, It.; settings: 0 to 100 scale
# Procedure, shortened: as §1
# [12] = tested on: galium (catchweed bedstraw, Galium aparine); assay: Test A postemergence, galium; settings: 0 to 100 scale
# Procedure, shortened: as §1
# [13] = tested on: wheat (Triticum aestivum); assay: Test A postemergence, wheat; settings: 0 to 100 scale
# Procedure, shortened: as §1
# corn (Zea mays) = assay: Test A postemergence, corn; settings: 0 to 100 scale
# Procedure, shortened: as §1
# [14] = tested on: foxtail, giant (giant foxtail, Setaria faberii); assay: Test A postemergence, foxtail, giant; settings: 0 to 100 scale
# Procedure, shortened: as §1
# [15] = tested on: barnyardgrass (Echinochloa crus-galli); assay: Test A preemergence, barnyardgrass; settings: 0 to 100 scale
# Procedure, shortened: as §1
# [16] = tested on: ducksalad (Heteranthera limosa); assay: Test B flooded paddy test, ducksalad; settings: Flood, scale of 0 to 100 where 0 is no effect and 100 is complete control, 13 to 15 d
# Procedure, shortened: as §2
# [17] = tested on: pigweed (Amaranthus retroflexus); assay: Test A preemergence, pigweed; settings: 0 to 100 scale
# Procedure, shortened: as §1
# [18] = tested on: foxtail, giant (giant foxtail, Setaria faberii); assay: Test A preemergence, foxtail, giant; settings: 0 to 100 scale
# Procedure, shortened: as §1
SMILES,"Plant response rating, Kochia (kochia (Kochia scoparia) [1]; 125 g ai/ha)","Plant response rating, Kochia (kochia (Kochia scoparia) [1]; 500 g ai/ha)","Plant response rating, Pigweed ([2]; 125 g ai/ha)","Plant response rating, Pigweed ([2]; 500 g ai/ha)","Plant response rating, Ragweed ([3]; 125 g ai/ha)","Plant response rating, Ragweed ([3]; 500 g ai/ha)","Plant response rating, Blackgrass ([5]; 125 g ai/ha)","Plant response rating, Blackgrass ([5]; 500 g ai/ha)","Plant response rating, Ragweed ([6]; 125 g ai/ha)","Plant response rating, Ragweed ([6]; 500 g ai/ha)","Plant response rating, Ryegrass, It. ([7]; 125 g ai/ha)","Plant response rating, Ryegrass, It. ([7]; 500 g ai/ha)","Plant response rating, Barnyardgrass ([9]; 125 g ai/ha)","Plant response rating, Barnyardgrass ([9]; 500 g ai/ha)","Plant response rating, Kochia (kochia (Kochia scoparia) [10]; 125 g ai/ha)","Plant response rating, Kochia (kochia (Kochia scoparia) [10]; 500 g ai/ha)","Plant response rating, Ryegrass, It. ([11]; 125 g ai/ha)","Plant response rating, Ryegrass, It. ([11]; 500 g ai/ha)","Plant response rating, Galium ([12]; 125 g ai/ha)","Plant response rating, Galium ([12]; 500 g ai/ha)",other results
O=C1NCC(Cc2ccc(C(F)(F)F)cc2)C1C(=O)Nc1cccc(F)c1F (stereo not drawn) [Compound 7],0,0,0,0,0,0,0,0,0,0,0,0,0,60,0,0,0,0,0,0,"Plant response rating, Sedge, Umbrella ([4]; 500 g ai/ha): 0; Plant response rating, Barnyardgrass ([8]; 500 g ai/ha): 25; Plant response rating, Rice (rice (Oryza sativa); 500 g ai/ha): 0; Plant response rating, Wheat ([13]; 125 g ai/ha): 0; Plant response rating, Wheat ([13]; 500 g ai/ha): 0; Plant response rating, Corn (corn (Zea mays); 125 g ai/ha): 0; Plant response rating, Corn (corn (Zea mays); 500 g ai/ha): 0; Plant response rating, Foxtail, Giant ([14]; 125 g ai/ha): 0; Plant response rating, Foxtail, Giant ([14]; 500 g ai/ha): 20; Plant response rating, Barnyardgrass ([15]; 125 g ai/ha): 0; Plant response rating, Barnyardgrass ([15]; 500 g ai/ha): 40; Plant response rating, Ducksalad ([16]; 500 g ai/ha): 75; Plant response rating, Pigweed ([17]; 125 g ai/ha): 0; Plant response rating, Pigweed ([17]; 500 g ai/ha): 0; Plant response rating, Foxtail, Giant ([18]; 125 g ai/ha): 0; Plant response rating, Foxtail, Giant ([18]; 500 g ai/ha): 30"
O=C1NCC(/C=C/c2cccc(F)c2)C1C(=O)Nc1cccc(F)c1F (stereo not drawn) [Compound 30],70,80,0,0,0,0,0,0,0,0,0,0,50,80,0,0,0,0,0,20,"Plant response rating, Sedge, Umbrella ([4]; 250 g ai/ha): 0; Plant response rating, Barnyardgrass ([8]; 250 g ai/ha): 70; Plant response rating, Rice (rice (Oryza sativa); 250 g ai/ha): 15; Plant response rating, Wheat ([13]; 125 g ai/ha): 0; Plant response rating, Wheat ([13]; 500 g ai/ha): 20; Plant response rating, Corn (corn (Zea mays); 125 g ai/ha): 0; Plant response rating, Corn (corn (Zea mays); 500 g ai/ha): 20; Plant response rating, Foxtail, Giant ([14]; 125 g ai/ha): 40; Plant response rating, Foxtail, Giant ([14]; 500 g ai/ha): 80; Plant response rating, Barnyardgrass ([15]; 125 g ai/ha): 50; Plant response rating, Barnyardgrass ([15]; 500 g ai/ha): 90; Plant response rating, Ducksalad ([16]; 250 g ai/ha): 95; Plant response rating, Pigweed ([17]; 125 g ai/ha): 0; Plant response rating, Pigweed ([17]; 500 g ai/ha): 0; Plant response rating, Foxtail, Giant ([18]; 125 g ai/ha): 60; Plant response rating, Foxtail, Giant ([18]; 500 g ai/ha): 90"
O=C1NCC(C#Cc2cccc(Cl)c2)C1C(=O)Nc1ccc(F)c(F)c1F (stereo not drawn) [Compound 26],0,0,0,0,0,0,0,0,0,0,0,0,0,60,0,0,0,0,0,0,"Plant response rating, Sedge, Umbrella ([4]; 250 g ai/ha): 0; Plant response rating, Barnyardgrass ([8]; 250 g ai/ha): 0; Plant response rating, Rice (rice (Oryza sativa); 250 g ai/ha): 0; Plant response rating, Wheat ([13]; 125 g ai/ha): 0; Plant response rating, Wheat ([13]; 500 g ai/ha): 0; Plant response rating, Corn (corn (Zea mays); 125 g ai/ha): 0; Plant response rating, Corn (corn (Zea mays); 500 g ai/ha): 0; Plant response rating, Foxtail, Giant ([14]; 125 g ai/ha): 0; Plant response rating, Foxtail, Giant ([14]; 500 g ai/ha): 40; Plant response rating, Barnyardgrass ([15]; 125 g ai/ha): 0; Plant response rating, Barnyardgrass ([15]; 500 g ai/ha): 70; Plant response rating, Ducksalad ([16]; 250 g ai/ha): 75; Plant response rating, Pigweed ([17]; 125 g ai/ha): 0; Plant response rating, Pigweed ([17]; 500 g ai/ha): 40; Plant response rating, Foxtail, Giant ([18]; 125 g ai/ha): 0; Plant response rating, Foxtail, Giant ([18]; 500 g ai/ha): 70"
Cc1cccc(C#CC2CNC(=O)C2C(=O)Nc2cccc(F)c2F)c1 (stereo not drawn) [Compound 22],0,20,0,0,0,0,0,0,0,0,0,0,40,70,0,0,0,0,0,20,"Plant response rating, Sedge, Umbrella ([4]; 250 g ai/ha): 0; Plant response rating, Barnyardgrass ([8]; 250 g ai/ha): 0; Plant response rating, Rice (rice (Oryza sativa); 250 g ai/ha): 0; Plant response rating, Wheat ([13]; 125 g ai/ha): 0; Plant response rating, Wheat ([13]; 500 g ai/ha): 0; Plant response rating, Corn (corn (Zea mays); 125 g ai/ha): 0; Plant response rating, Corn (corn (Zea mays); 500 g ai/ha): 20; Plant response rating, Foxtail, Giant ([14]; 125 g ai/ha): 20; Plant response rating, Foxtail, Giant ([14]; 500 g ai/ha): 50; Plant response rating, Barnyardgrass ([15]; 125 g ai/ha): 60; Plant response rating, Barnyardgrass ([15]; 500 g ai/ha): 80; Plant response rating, Ducksalad ([16]; 250 g ai/ha): 70; Plant response rating, Pigweed ([17]; 125 g ai/ha): 0; Plant response rating, Pigweed ([17]; 500 g ai/ha): 0; Plant response rating, Foxtail, Giant ([18]; 125 g ai/ha): 50; Plant response rating, Foxtail, Giant ([18]; 500 g ai/ha): 70"
Cc1cccc(C#CC2CNC(=O)C2C(=O)Nc2ccccc2F)c1 (stereo not drawn) [Compound 21],0,0,0,0,0,0,0,0,0,0,0,20,0,50,0,0,0,0,0,0,"Plant response rating, Sedge, Umbrella ([4]; 250 g ai/ha): 0; Plant response rating, Barnyardgrass ([8]; 250 g ai/ha): 0; Plant response rating, Rice (rice (Oryza sativa); 250 g ai/ha): 0; Plant response rating, Wheat ([13]; 125 g ai/ha): 0; Plant response rating, Wheat ([13]; 500 g ai/ha): 0; Plant response rating, Corn (corn (Zea mays); 125 g ai/ha): 0; Plant response rating, Corn (corn (Zea mays); 500 g ai/ha): 0; Plant response rating, Foxtail, Giant ([14]; 125 g ai/ha): 0; Plant response rating, Foxtail, Giant ([14]; 500 g ai/ha): 20; Plant response rating, Barnyardgrass ([15]; 125 g ai/ha): 20; Plant response rating, Barnyardgrass ([15]; 500 g ai/ha): 80; Plant response rating, Ducksalad ([16]; 250 g ai/ha): 40; Plant response rating, Pigweed ([17]; 125 g ai/ha): 0; Plant response rating, Pigweed ([17]; 500 g ai/ha): 0; Plant response rating, Foxtail, Giant ([18]; 125 g ai/ha): 0; Plant response rating, Foxtail, Giant ([18]; 500 g ai/ha): 0"
